# Measurements: patent US4410513A, “Synthetic peptides having pituitary growth hormone releasing activity” (Beckman Instruments, Inc., priority 1981, dated 1983)
# Non-standard residues stand in square brackets, D forms with d. Residues, ends and D or L forms follow the SMILES beside them.
# Key:
# growth hormone release = assay: In vivo growth hormone release study (serum GH by RIA about 15 minutes after intraperitoneal injection); parameters: species or system rat; details: 21 day old female rats, serum about 15 minutes after injection, mean of 8 ± SEM, control 4 ± 1
# Procedure: Female rats of the CD-1 strain were housed in a constant temperature room at 24° C. with 14 hours light and 10 hours darkness. The rats were fed Purina brand rat chow ab libitum. All studies were started between 0800 and 1000 hours.
# Each female rat (21 days old; eight rats per dosage level shown in Table XVI) was intraperitoneally injected with a desired dosage of the peptide of Example 1. Approximately 15 minutes after injection, the rat was guillotined. A blood sample was collected from the guillotined rat. The blood sample was centrifuged and a serum sample was collected therefrom. Each serum sample was assayed for GH, in duplicate, by a standard radioimmunoassay (RIA).
# pituitaries = assay: In vitro growth hormone release study (incubated rat pituitaries, GH by RIA); format: cell-based
# Procedure: Female rats at the CD-1 strain were housed in a constant temperature room at 24° C. with 14 hours light and 10 hours darkness. The rats were fed Purina brand rat chow ab libitum. All studies were started between 0800 and 1000 hours.
# Pituitaries were removed from 20 day old female rats. In each polytetrafluoroethylene beaker (10 ml) was incubated two pituitaries at 36° C. in 1 ml of lactated Ringer's solution in a Dubnoff Shaker (90 cycles/min.). All medium in each beaker was removed each hour (e.g., P1, P2, I3, I4, I5) and then fresh medium was added back to each beaker. Each medium removed was assayed for GH, in duplicate, by a standard radioimmunoassay (RIA).
# The growth hormone agonist of Example 1 was not added to the incubation mediums employed during the first hour of the incubation period (P1) or to the incubation mediums employed during the second hour of the incubation period (P2). The growth hormone agonist of Example 1 was dissolved in dimethylsulfoxide (DMSO; 10:1, agonist:DMSO), added to each incubation medium employed during the third hour of the incubation period (I3), to each medium employed during the fourth hour of the incubation period (I4) and to each medium employed during the fifth hour of the incubation period (I5). The release of growth hormone was recorded as ΔGH and calculated by subtracting the amount of GH released at P2 from that released at I3, I4, and I5. The agonist activity was determined from the release at I3, I4, and I5.
# The procedure set forth in Example 11 with one modification was employed in an in vitro growth hormone release study of the peptide of Example 6 and the results therefrom are set forth in Table XI. The sole modification was the deletion of I5 from the procedure of Example 11.
# The procedure set forth in Example 11 with one modification was employed in an in vitro growth hormone release study of the peptide of Example 7 and the results therefrom are set forth in Table XII. The sole modification was the deletion of I5 from the procedure of Example 11.
# [1] = dosage 1 ng/ml incubation medium, mean of 9 assays (I3, I4, I5 minus P2) ± SEM
# [2] = dosage 3 ng/ml incubation medium, mean of 9 assays (I3, I4, I5 minus P2) ± SEM
# [3] = dosage 10 ng/ml incubation medium, mean of 9 assays (I3, I4, I5 minus P2) ± SEM
# [4] = dosage 30 ng/ml incubation medium, mean of 9 assays (I3, I4, I5 minus P2) ± SEM
# [5] = dosage 100 ng/ml incubation medium, mean of 9 assays (I3, I4, I5 minus P2) ± SEM
# [6] = dosage 1,000 ng/ml incubation medium, mean of 9 assays (I3, I4, I5 minus P2) ± SEM
Compound,ΔGH (pituitaries; [1]) [ng/mL],ΔGH (pituitaries; [2]) [ng/mL],ΔGH (pituitaries; [3]),ΔGH (pituitaries; [4]),ΔGH (pituitaries; [5]) [ng/mL],ΔGH (pituitaries; [6]) [ng/mL],also measured
"C[C@H](NC(=O)[C@@H](Cc1c[nH]c2ccccc12)NC(=O)[C@@H](N)Cc1c[nH]cn1)C(=O)N[C@@H](Cc1c[nH]c2ccccc12)C(=O)N[C@H](Cc1ccccc1)C(N)=O [Example 1, H2 -His-D-Trp-Ala-Trp-D-Phe-NH2] (H-H[dW]AW[dF]-NH2)",206,288,"2,005 ng/ml","3,046 ng/ml",–,–,ΔGH (growth hormone release; dosage 0.1 (μg/ml serum)): 1 ± 1 ng/mL; ΔGH (growth hormone release; dosage 1.0 (μg/ml serum)): 2 ± 2 ng/mL; ΔGH (growth hormone release; dosage 10.0 (μg/ml serum)): 2 ± 1 ng/mL; ΔGH (growth hormone release; dosage 100.0 (μg/ml serum)): 82 ± 18 ng/mL
"C[C@H](NC(=O)[C@@H](Cc1c[nH]c2ccccc12)NC(=O)[C@@H](N)Cc1ccc(O)cc1)C(=O)N[C@@H](Cc1c[nH]c2ccccc12)C(=O)N[C@H](Cc1c[nH]cn1)C(N)=O [Example 2, H2 -Tyr-D-Trp-Ala-Trp-D-His-NH2] (H-Y[dW]AW[dH]-NH2)",-179,-192,-802 ng/mL,611 ng/mL,–,–,–
"C[C@H](NC(=O)[C@@H](Cc1c[nH]c2ccccc12)NC(=O)[C@@H](N)Cc1c[nH]cn1)C(=O)N[C@@H](Cc1c[nH]c2ccccc12)C(=O)N[C@H](Cc1ccc(O)cc1)C(N)=O [Example 3, H2 -His-D-Trp-Ala-Trp-D-Tyr-NH2] (H-H[dW]AW[dY]-NH2)",-126,–,-99 ng/mL,–,-238,2598,–
"C[C@H](NC(=O)[C@@H](Cc1c[nH]c2ccccc12)NC(=O)[C@@H](N)Cc1c[nH]cn1)C(=O)N[C@@H](Cc1c[nH]c2ccccc12)C(=O)N[C@H](Cc1c[nH]cn1)C(N)=O [Example 4, H2 -His-D-Trp-Ala-Trp-D-His-NH2] (H-H[dW]AW[dH]-NH2)",-166,–,-369 ng/mL,–,43,1501,–
"C[C@@H](NC(=O)[C@@H](Cc1c[nH]c2ccccc12)NC(=O)[C@@H](N)Cc1ccc(O)cc1)C(=O)N[C@@H](Cc1c[nH]c2ccccc12)C(=O)N[C@H](Cc1ccccc1)C(N)=O [Example 6, H2 -Tyr-D-Trp-D-Ala-Trp-D-Phe-NH2] (H-Y[dW][dA]W[dF]-NH2)",–,–,–,–,–,–,"ΔGH (pituitaries; dosage 300 ng/ml incubation medium, I5 deleted, mean of 6 assays (I3, I4 minus P2) ± SEM): 648 ± 210 ng/mL; ΔGH (pituitaries; dosage 3,000 ng/ml incubation medium, I5 deleted, mean of 6 assays (I3, I4 minus P2) ± SEM): 435 ± 143 ng/mL; ΔGH (pituitaries; dosage 30,000 ng/ml incubation medium, I5 deleted, mean of 6 assays (I3, I4 minus P2) ± SEM): 1136 ± 190 ng/mL"
"CC(=O)N[C@@H](Cc1ccc(O)cc1)C(=O)N[C@H](Cc1c[nH]c2ccccc12)C(=O)N[C@@H](C)C(=O)N[C@@H](Cc1c[nH]c2ccccc12)C(=O)N[C@H](Cc1ccccc1)C(N)=O [Example 9, CH3 CO-Tyr-D-Trp-Ala-Trp-D-Phe-NH2] (Ac-Y[dW]AW[dF]-NH2)",–,–,-297 ± 79 ng/mL,-118 ± 97 ng/mL,–,–,"ΔGH (pituitaries; dosage 300 ng/ml incubation medium, mean of 9 assays (I3, I4, I5 minus P2) ± SEM): 5 ± 29 ng/mL; ΔGH (pituitaries; dosage 3,000 ng/ml incubation medium, mean of 9 assays (I3, I4, I5 minus P2) ± SEM): 1594 ± 385 ng/mL; ΔGH (pituitaries; dosage 30,000 ng/ml incubation medium, mean of 9 assays (I3, I4, I5 minus P2) ± SEM): 1607 ± 250 ng/mL"
